Measured values: PubChem BioAssay (NCI)
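Where inhibition never reached the appropriate level, the endpoint shown equals the highest concentration tested. Otherwise, values were interpolated linearly from a five-concentration, 48-hour dose response in 96-well plates. Definition used: TGI = concentration required for complete inhibition of growth.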

Columns and labels:
Experiment in all cases: inhibition of tumour cell growth, NCI panel, 48 h
[1] = system: DU-145 prostate
[2] = system: IGROV1 ovarian
[3] = system: NCI-H226 lung
[4] = system: OVCAR-5 ovarian
[5] = system: RPMI-8226 leukemia
[6] = system: SF-295 CNS
[7] = system: SK-MEL-28 melanoma
[8] = system: SK-OV-3 ovarian
[9] = system: T-47D breast
[10] = system: UO-31 renal

SMILES | TGI [1] [µM] | TGI [2] [µM] | TGI [3] [µM] | TGI [4] [µM] | TGI [5] [µM] | TGI [6] [µM] | TGI [7] [µM] | TGI [8] [µM] | TGI [9] [µM] | TGI [10] [µM]
Cc1c(C)c(C)c(CC2(C)CSC2)c(CC2(C)CSC2)c1C | > 100 | > 100 | > 100 | > 100 | > 100 | > 100 | > 100 | > 100 | > 100 | > 100
CC(=O)N1N=C(c2ccc3ccccc3c2O)CC1c1cccs1 (stereo not given) | > 100 | > 100 | > 100 | > 100 | 47.1 | > 100 | > 100 | > 100 | > 100 | 64.1
CCOP(=O)(OCC)C(C)(C)N(C)/C(F)=N/C(F)(F)F | > 100 | > 100 | > 100 | > 100 | > 100 | > 100 | > 100 | > 100 | > 100 | > 100
